Experimental data: the NIST ThermoML archive (doi:10.1021/je700707y)
Values joined by “and” are separate entries in the source; they are usually repeats but may differ in a detail not shown here. Equal values may be shown once.

Assays:
[1] = 101.33 kPa, Liquid, Vibrating tube method
[2] = wn = mass fraction of the nth substance listed; conditions: Liquid, Vibrating tube method, w2 = 0.001

CCCCn1cc[n+](C)c1.F[P-](F)(F)(F)(F)F [1-butyl-3-methylimidazolium hexafluorophosphate]
[1]
Conditions	mass density
293.15 K	1369.8 kg/m3 and 1368.1 kg/m3
298.15 K	1365.7 kg/m3 and 1364.1 kg/m3
303.15 K	1361.6 kg/m3 and 1360 kg/m3
308.15 K	1357.4 kg/m3 and 1355.7 kg/m3
313.15 K	1353.3 kg/m3 and 1351.8 kg/m3
318.15 K	1349.2 kg/m3 and 1347.5 kg/m3
323.15 K	1345.1 kg/m3 and 1343.5 kg/m3
328.15 K	1341 kg/m3 and 1339.4 kg/m3
333.15 K	1336.9 kg/m3 and 1335.2 kg/m3
338.15 K	1332.7 kg/m3 and 1331.1 kg/m3
343.15 K	1328.6 kg/m3 and 1327 kg/m3

CCCCCCCCCCCCCC[P+](CCCCCC)(CCCCCC)CCCCCC.O=S(=O)([N-]S(=O)(=O)C(F)(F)F)C(F)(F)F + O
Conditions	mass density [kg/m3]
[2], 298.15 K, 100 kPa	1060.1

C[N+]1(CC#N)CCCC1.O=S(=O)([N-]S(=O)(=O)C(F)(F)F)C(F)(F)F
[1]
Conditions	mass density [kg/m3]
293.15 K	1545.4
298.15 K	1537.8
303.15 K	1533.1
313.15 K	1523.8
323.15 K	1514.5
333.15 K	1505.5
343.15 K	1496.7
353.15 K	1487.8
363.15 K	1479

Cn1cc[n+](C)c1.N#C[S-] [1,3-dimethylimidazolium thiocyanate]
[1]
Conditions	mass density [kg/m3]
293.15 K	1160.7
298.15 K	1157.4
303.15 K	1154.2
313.15 K	1147.8
323.15 K	1141.4
333.15 K	1135.2
343.15 K	1129.1
353.15 K	1123.1
363.15 K	1117.2

CCn1cc[n+](C)c1.O=S(=O)([N-]S(=O)(=O)C(F)(F)F)C(F)(F)F
[1]
Conditions	mass density
293.15 K	1522.9 kg/m3 and 1523.4 kg/m3
298.15 K	1517.9 kg/m3
303.15 K	1512.9 kg/m3 and 1513.4 kg/m3
308.15 K	1507.9 kg/m3
313.15 K	1502.9 kg/m3 and 1503.4 kg/m3
318.15 K	1497.9 kg/m3
323.15 K	1492.9 kg/m3 and 1493.4 kg/m3
328.15 K	1488 kg/m3
333.15 K	1483 kg/m3 and 1483.5 kg/m3
338.15 K	1478 kg/m3
343.15 K	1473 kg/m3 and 1473.7 kg/m3
353.15 K	1463.8 kg/m3
363.15 K	1454 kg/m3

N#CC[n+]1ccccc1.O=S(=O)([N-]S(=O)(=O)C(F)(F)F)C(F)(F)F
[1]
Conditions	mass density [kg/m3]
293.15 K	1636.2
298.15 K	1631.2
303.15 K	1626.2
313.15 K	1616.2
323.15 K	1606.4
333.15 K	1596.8
343.15 K	1587.3
353.15 K	1577.7
363.15 K	1568.3

CCOS(=O)(=O)[O-].CCn1cc[n+](C)c1 [1-ethyl-3-methylimidazolium ethyl sulfate]
[1]
Conditions	mass density [kg/m3]
293.15 K	1242.3
303.15 K	1235.6
313.15 K	1228.9
323.15 K	1222.1
333.15 K	1215.5
343.15 K	1208.8
353.15 K	1202.2
363.15 K	1195.6

CCCC[n+]1ccn(C)c1.O=S(=O)([N-]S(=O)(=O)C(F)(F)F)C(F)(F)F
[1]
Conditions	mass density
293.15 K	1442.7 kg/m3 and 1440.2 kg/m3
298.15 K	1437.9 kg/m3
303.15 K	1433.1 kg/m3 and 1430.7 kg/m3
308.15 K	1428.3 kg/m3
313.15 K	1423.5 kg/m3 and 1421.2 kg/m3
318.15 K	1418.8 kg/m3
323.15 K	1414 kg/m3 and 1411.8 kg/m3
328.15 K	1409.3 kg/m3
333.15 K	1404.5 kg/m3 and 1402.4 kg/m3
338.15 K	1399.7 kg/m3
343.15 K	1395 kg/m3 and 1393 kg/m3
353.15 K	1383.6 kg/m3
363.15 K	1374.3 kg/m3

CCCCCCCCn1cc[n+](C)c1.O=S(=O)([N-]S(=O)(=O)C(F)(F)F)C(F)(F)F
[1]
Conditions	mass density [kg/m3]
293.15 K	1324.5
303.15 K	1315.8
313.15 K	1307
323.15 K	1298.2
333.15 K	1289.5
343.15 K	1280.8
353.15 K	1272.1
363.15 K	1263.5

CCCCCCCCCCn1cc[n+](C)c1.O=S(=O)([N-]S(=O)(=O)C(F)(F)F)C(F)(F)F + O
Conditions	mass density [kg/m3]
[2], 298.15 K, 100 kPa	1275.5

CCn1cc[n+](C)c1.O=S(=O)([N-]S(=O)(=O)C(F)(F)F)C(F)(F)F + O
[2], 101 kPa
Conditions	mass density [kg/m3]
293.15 K	1520
298.15 K	1515
303.15 K	1510
308.15 K	1504.9
313.15 K	1499.8
318.15 K	1494.8
323.15 K	1489.8
328.15 K	1484.8
333.15 K	1479.7
338.15 K	1474.7
343.15 K	1469.7
